From patent US20200239530A1, “COMPOUNDS AND METHODS OF MODULATING PROTEIN DEGRADATION” (Vividion Therapeutics, Inc., priority 2017, published 2020) come the findings set out here.

The structures appear in SMILES notation.

For assay [1], the target named is T1, NEK9 Serine/threonine-protein kinase Nek9 (Homo sapiens, UniProt Q8TD19).
T1 construct: Cells were resuspended in cold PBS on ice and sonicated with a probe sonicator to achieve lysis; endogenous in cells
T1 sequence (Q8TD19 1-979): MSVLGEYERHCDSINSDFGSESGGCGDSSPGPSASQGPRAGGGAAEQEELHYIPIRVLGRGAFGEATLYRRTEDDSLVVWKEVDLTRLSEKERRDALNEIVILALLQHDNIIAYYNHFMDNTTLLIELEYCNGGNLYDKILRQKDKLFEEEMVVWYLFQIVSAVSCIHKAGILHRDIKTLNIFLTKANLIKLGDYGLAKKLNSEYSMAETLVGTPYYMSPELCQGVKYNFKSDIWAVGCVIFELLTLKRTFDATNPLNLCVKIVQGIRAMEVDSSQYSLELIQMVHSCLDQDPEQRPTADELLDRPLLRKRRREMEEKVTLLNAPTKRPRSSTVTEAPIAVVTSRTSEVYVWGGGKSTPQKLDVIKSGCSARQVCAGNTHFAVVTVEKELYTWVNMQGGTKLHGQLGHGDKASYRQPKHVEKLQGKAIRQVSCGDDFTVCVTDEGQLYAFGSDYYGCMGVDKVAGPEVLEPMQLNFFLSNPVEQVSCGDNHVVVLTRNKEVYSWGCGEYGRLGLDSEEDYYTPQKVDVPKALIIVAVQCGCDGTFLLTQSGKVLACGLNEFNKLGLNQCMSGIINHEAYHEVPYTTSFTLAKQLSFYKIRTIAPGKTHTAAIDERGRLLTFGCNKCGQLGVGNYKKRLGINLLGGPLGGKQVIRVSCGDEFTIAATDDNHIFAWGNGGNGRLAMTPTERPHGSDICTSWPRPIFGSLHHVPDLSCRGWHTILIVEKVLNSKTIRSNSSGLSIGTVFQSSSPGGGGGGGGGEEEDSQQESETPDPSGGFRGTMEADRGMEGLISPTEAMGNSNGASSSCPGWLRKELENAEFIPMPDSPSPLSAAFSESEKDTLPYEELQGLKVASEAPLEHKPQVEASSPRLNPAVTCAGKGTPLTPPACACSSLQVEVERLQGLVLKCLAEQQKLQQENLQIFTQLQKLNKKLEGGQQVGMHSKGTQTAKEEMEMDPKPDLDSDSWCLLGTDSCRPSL
The assay can be described thus: Cysteine liganding, probe competition. The class given is binding. Put shortly: (§1)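 Read-out is loss of desthiobiotin iodoacetamide labelling at cysteines, measured on streptavidin-enriched tryptic peptides. Compound preincubation ran 1 hr at 25° C in PBS lysate holding 5 mg/ml proteome before the probe was added.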

Assay [2] addresses T2, RPN1 Dolichyl-diphosphooligosaccharide--protein glycosy (Homo sapiens, UniProt P04843).
T2 construct: Cells were resuspended in cold PBS on ice and sonicated with a probe sonicator to achieve lysis; endogenous in cells
T2 sequence (P04843 24-607): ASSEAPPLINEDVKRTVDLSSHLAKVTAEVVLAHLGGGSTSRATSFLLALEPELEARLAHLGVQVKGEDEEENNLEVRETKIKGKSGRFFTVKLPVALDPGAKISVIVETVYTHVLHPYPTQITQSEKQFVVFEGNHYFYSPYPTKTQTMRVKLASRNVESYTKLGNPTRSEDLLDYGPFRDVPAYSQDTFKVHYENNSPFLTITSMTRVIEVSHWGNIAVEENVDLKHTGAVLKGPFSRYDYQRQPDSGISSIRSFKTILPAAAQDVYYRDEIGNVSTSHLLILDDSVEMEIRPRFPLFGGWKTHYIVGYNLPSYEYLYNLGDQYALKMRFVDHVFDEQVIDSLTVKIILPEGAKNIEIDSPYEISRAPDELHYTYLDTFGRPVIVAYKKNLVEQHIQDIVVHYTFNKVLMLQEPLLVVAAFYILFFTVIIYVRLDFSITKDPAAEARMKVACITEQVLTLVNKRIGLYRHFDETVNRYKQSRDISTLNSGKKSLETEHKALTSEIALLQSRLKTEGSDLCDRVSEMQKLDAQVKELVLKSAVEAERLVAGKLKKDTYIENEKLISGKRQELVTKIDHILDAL
Description: Cysteine liganding, probe competition. In kind it is binding. A digest of the protocol:
as §1

For the compound `O=C(CCl)Nc1cc(C(F)(F)F)cc(C(F)(F)F)c1` [KBO3], in assay [1] (uniprot Q8TD19), the “100 Max” value is listed as 9.47, the 100 ave is reported as 9.47, the “500 Max” value stood at 56.18 and the 500 ave came to 56.18. Moreover, in assay [2] (uniprot P04843), the “100 Max” value amounted to 9.24, the 100 ave is given as −5.035 and the 500 ave is on record as 23.85. Moreover, in assay [2] (uniprot P04843, in % (unit assumed)), the “500 Max” value is on record as 28.71.
For `COc1ccc2c(c1)CCCN2C(=O)CCl` [KB02], the Liganded entry in assay [1] (NEK9 Res# 260, uniprot Q8TD19) is recorded as “YES”; in assay [2] (RPN1 Res# 477, uniprot P04843) it was “YES”.
